# Article PMC9516332 (Frontiers in Oncology, 2022)
# Like-named read-outs stand apart in the source and are kept apart here.
# Test system: 134 cancer cell lines
# Assay: Cell viability assay (ATPlite, 72 hours), IC50 on cancer cell line panel
compound,measurement,setting,value
C=CC(=O)N1CCC([C@@H]2CCNc3c(C(N)=O)c(-c4ccc(Oc5ccccc5)cc4)nn32)CC1 [zanubrutinib],IC50,"Homo sapiens, LS174T, read-out: IC50 in cell proliferation assay",11.5 µM
same,IC50,"Homo sapiens, LS-411N, read-out: IC50 in cell proliferation assay",12.4 µM
same,IC50,"Homo sapiens, LoVo, read-out: IC50 in cell proliferation assay",24.9 µM
same,IC50,"Homo sapiens, MCF7, read-out: IC50 in cell proliferation assay",> 31.6 µM
same,IC50,"Homo sapiens, MDA-MB-231, read-out: IC50 in cell proliferation assay",> 31.6 µM
same,IC50,"Homo sapiens, MDA-MB-453, read-out: IC50 in cell proliferation assay",4.19 µM
same,IC50,"Homo sapiens, MDA-MB-468, read-out: IC50 in cell proliferation assay",3.9 µM
same,IC50,"Homo sapiens, MG-63, read-out: IC50 in cell proliferation assay",29.3 µM
same,IC50,"Homo sapiens, MIA PaCa-2, read-out: IC50 in cell proliferation assay",> 31.6 µM
same,IC50,"Homo sapiens, MKN-45, read-out: IC50 in cell proliferation assay",> 31.6 µM
same,IC50,"Homo sapiens, MOLM-13, read-out: IC50 in cell proliferation assay",2.06 µM
same,IC50,"Homo sapiens, MOLT-4, read-out: IC50 in cell proliferation assay",16.5 µM
same,IC50,"Homo sapiens, MV4-11, read-out: IC50 in cell proliferation assay",3.72 µM
same,IC50,"Homo sapiens, MeWo, read-out: IC50 in cell proliferation assay",> 31.6 µM
same,IC50,"Homo sapiens, NCCIT, read-out: IC50 in cell proliferation assay",11.4 µM
same,IC50,"Homo sapiens, NCI-H82, read-out: IC50 in cell proliferation assay",> 31.6 µM
same,IC50,"Homo sapiens, NCI-H460, read-out: IC50 in cell proliferation assay",> 31.6 µM
same,IC50,"Homo sapiens, NCI-H661, read-out: IC50 in cell proliferation assay",0.612 µM
same,IC50,"Homo sapiens, NCI-H716, read-out: IC50 in cell proliferation assay",11.7 µM
same,IC50,"Homo sapiens, NCI-H1650, read-out: IC50 in cell proliferation assay",13.9 µM
same,IC50,"Homo sapiens, NCI-H1975, read-out: IC50 in cell proliferation assay",4.6 µM
same,IC50,"Homo sapiens, NCI-H2228, read-out: IC50 in cell proliferation assay",> 31.6 µM
same,IC50,"Homo sapiens, OVCAR-3, read-out: IC50 in cell proliferation assay",1.53 µM
same,IC50,"Homo sapiens, PFSK-1, read-out: IC50 in cell proliferation assay",18 µM
same,IC50,"Homo sapiens, RL95-2, read-out: IC50 in cell proliferation assay",1.17 µM
same,IC50,"Homo sapiens, RPMI-7951, read-out: IC50 in cell proliferation assay",> 31.6 µM
same,IC50,"Homo sapiens, RS4-11, read-out: IC50 in cell proliferation assay",26.5 µM
same,IC50,"Homo sapiens, SHP77, read-out: IC50 in cell proliferation assay",> 31.6 µM
same,IC50,"Homo sapiens, SK-BR-3, read-out: IC50 in cell proliferation assay",0.141 µM
same,IC50,"Homo sapiens, SK-N-AS, read-out: IC50 in cell proliferation assay",15.5 µM
same,IC50,"Homo sapiens, SK-N-FI, read-out: IC50 in cell proliferation assay",> 31.6 µM
same,IC50,"Homo sapiens, SK-N-MC, read-out: IC50 in cell proliferation assay",23.1 µM
same,IC50,"Homo sapiens, SK-N-SH, read-out: IC50 in cell proliferation assay",> 31.6 µM
same,IC50,"Homo sapiens, SNU-5, read-out: IC50 in cell proliferation assay",8.94 µM
same,IC50,"Homo sapiens, SNU-16, read-out: IC50 in cell proliferation assay",8.54 µM
same,IC50,"Homo sapiens, SNU-C2B, read-out: IC50 in cell proliferation assay",0.866 µM
same,IC50,"Homo sapiens, SU-DHL-1, read-out: IC50 in cell proliferation assay",16.8 µM
same,IC50,"Homo sapiens, SU-DHL-6, read-out: IC50 in cell proliferation assay",0.00375 µM
same,IC50,"Homo sapiens, SUP-T1, read-out: IC50 in cell proliferation assay",17.5 µM
same,IC50,"Homo sapiens, SW48, read-out: IC50 in cell proliferation assay",0.043 µM
same,IC50,"Homo sapiens, SW480, read-out: IC50 in cell proliferation assay",9.56 µM
same,IC50,"Homo sapiens, SW626, read-out: IC50 in cell proliferation assay",2.71 µM
same,IC50,"Homo sapiens, SW780, read-out: IC50 in cell proliferation assay",5.82 µM
same,IC50,"Homo sapiens, SW837, read-out: IC50 in cell proliferation assay",6 µM
same,IC50,"Homo sapiens, SW872, read-out: IC50 in cell proliferation assay",> 31.6 µM
same,IC50,"Homo sapiens, SW900, read-out: IC50 in cell proliferation assay",5.84 µM
same,IC50,"Homo sapiens, SW948, read-out: IC50 in cell proliferation assay",> 31.6 µM
same,IC50,"Homo sapiens, SW982, read-out: IC50 in cell proliferation assay",> 31.6 µM
same,IC50,"Homo sapiens, SW-620, read-out: IC50 in cell proliferation assay",4.75 µM
same,IC50,"Homo sapiens, T98G, read-out: IC50 in cell proliferation assay",> 31.6 µM
same,IC50,"Homo sapiens, TCC-SUP, read-out: IC50 in cell proliferation assay",> 31.6 µM
same,IC50,"Homo sapiens, THP-1, read-out: IC50 in cell proliferation assay",> 31.6 µM
same,IC50,"Homo sapiens, U2OS, read-out: IC50 in cell proliferation assay",10.7 µM
same,IC50,"Homo sapiens, U-87 MG, read-out: IC50 in cell proliferation assay",> 31.6 µM
same,IC50,"Homo sapiens, U-118-MG, read-out: IC50 in cell proliferation assay",> 31.6 µM
same,IC50,"Homo sapiens, UMUC3, read-out: IC50 in cell proliferation assay",24.1 µM
same,IC50,"Hs766T, read-out: IC50 in cell proliferation assay",> 31.6 µM
same,IC50,"L-82, read-out: IC50 in cell proliferation assay",17.6 µM
same,IC50,"Rh30, read-out: IC50 in cell proliferation assay",17.4 µM
